{"source": "ChEMBL document CHEMBL1147343", "about": "“Isolation and identification of an antifungal naphthopyran derivative from Rhinacanthus nasutus” (1993)", "test_system": "Pyricularia oryzae", "experiment": "Antifungal activity against Pyricularia oryzae assessed as inhibition of spore germination", "type": "functional", "conditions": "read-out: ED50 (the source's name)", "data": [{"smiles": "CC1(C)COC2=C(C1)C(=O)c1ccccc1C2=O", "values": [{"measurement": "EC50", "value": 0.4, "unit": "µg/mL"}]}]}
